From ChEMBL document CHEMBL1671627, “Increasing trends in antimicrobial resistance among clinically important anaerobes and Bacteroides fragilis isolates causing nosocomial infections: emerging resistance to carbapenems” (2008)
Values after ≈ are worked out from the molar mass of the structure shown.

Tests used:
Bacteroides fragilis [1] = test: Antibacterial activity against Bacteroides fragilis assessed as susceptible isolates by CLSI agar dilution method; type: functional
Bacteroides fragilis [2] = test: Antibacterial activity against Bacteroides fragilis assessed as resistant isolates by CLSI agar dilution method; type: functional
[3] = tested on: Bacteroides thetaiotaomicron; test: Antibacterial activity against beta-lactamase producing Bacteroides thetaiotaomicron assessed as susceptible isolates by CLSI agar dilution method; type: functional
Phocaeicola vulgatus [4] = test: Antibacterial activity against beta-lactamase producing Bacteroides vulgatus by CLSI agar dilution method; type: functional
Phocaeicola vulgatus [5] = test: Antibacterial activity against beta-lactamase producing Bacteroides vulgatus assessed as susceptible isolates by CLSI agar dilution method; type: functional
Phocaeicola vulgatus [6] = test: Antibacterial activity against beta-lactamase producing Bacteroides vulgatus assessed as resistant isolates by CLSI agar dilution method; type: functional
Bacteroides uniformis [7] = test: Antibacterial activity against beta-lactamase producing Bacteroides uniformis by CLSI agar dilution method; type: functional
Bacteroides uniformis [8] = test: Antibacterial activity against beta-lactamase producing Bacteroides uniformis assessed as susceptible isolates by CLSI agar dilution method; type: functional
Bacteroides uniformis [9] = test: Antibacterial activity against beta-lactamase producing Bacteroides uniformis assessed as resistant isolates by CLSI agar dilution method; type: functional
Bacteroides caccae [10] = test: Antibacterial activity against beta-lactamase producing Bacteroides caccae by CLSI agar dilution method; type: functional
Bacteroides caccae [11] = test: Antibacterial activity against beta-lactamase producing Bacteroides caccae assessed as susceptible isolates by CLSI agar dilution method; type: functional
Bacteroides caccae [12] = test: Antibacterial activity against beta-lactamase producing Bacteroides caccae assessed as resistant isolates by CLSI agar dilution method; type: functional
Fusobacterium varium [13] = test: Antibacterial activity against Fusobacterium varium by CLSI agar dilution method; type: functional
Fusobacterium nucleatum [14] = test: Antibacterial activity against Fusobacterium nucleatum by CLSI agar dilution method; type: functional
Fusobacterium mortiferum [15] = test: Antibacterial activity against Fusobacterium mortiferum by CLSI agar dilution method; type: functional
[16] = tested on: Fusobacterium necrophorum; test: Antibacterial activity against Fusobacterium necrophorum by CLSI agar dilution method; type: functional
Fusobacterium varium [17] = test: Antibacterial activity against Fusobacterium varium assessed as susceptible isolates by CLSI agar dilution method; type: functional
Fusobacterium nucleatum [18] = test: Antibacterial activity against Fusobacterium nucleatum assessed as susceptible isolates by CLSI agar dilution method; type: functional
Fusobacterium mortiferum [19] = test: Antibacterial activity against Fusobacterium mortiferum assessed as susceptible isolates by CLSI agar dilution method; type: functional
[20] = tested on: Fusobacterium necrophorum; test: Antibacterial activity against Fusobacterium necrophorum assessed as susceptible isolates by CLSI agar dilution method; type: functional
Fusobacterium varium [21] = test: Antibacterial activity against Fusobacterium varium assessed as resistant isolates by CLSI agar dilution method; type: functional
Fusobacterium nucleatum [22] = test: Antibacterial activity against Fusobacterium nucleatum assessed as resistant isolates by CLSI agar dilution method; type: functional
Fusobacterium mortiferum [23] = test: Antibacterial activity against Fusobacterium mortiferum assessed as resistant isolates by CLSI agar dilution method; type: functional
[24] = tested on: Fusobacterium necrophorum; test: Antibacterial activity against Fusobacterium necrophorum assessed as resistant isolates by CLSI agar dilution method; type: functional
Prevotella buccae [25] = test: Antibacterial activity against Prevotella buccae by CLSI agar dilution method; type: functional; details: Segatella buccae
Prevotella bivia [26] = test: Antibacterial activity against Prevotella bivia by CLSI agar dilution method; type: functional
Prevotella intermedia [27] = test: Antibacterial activity against Prevotella intermedia by CLSI agar dilution method; type: functional
[28] = tested on: Prevotella melaninogenica; test: Antibacterial activity against Prevotella melaninogenica by CLSI agar dilution method; type: functional
Prevotella buccae [29] = test: Antibacterial activity against Prevotella buccae assessed as susceptible isolates by CLSI agar dilution method; type: functional, Segatella buccae
Prevotella bivia [30] = test: Antibacterial activity against Prevotella bivia assessed as susceptible isolates by CLSI agar dilution method; type: functional
Prevotella intermedia [31] = test: Antibacterial activity against Prevotella intermedia assessed as susceptible isolates by CLSI agar dilution method; type: functional
[32] = tested on: Prevotella melaninogenica; test: Antibacterial activity against Prevotella melaninogenica assessed as susceptible isolates by CLSI agar dilution method; type: functional
Prevotella buccae [33] = test: Antibacterial activity against Prevotella buccae assessed as resistant isolates by CLSI agar dilution method; type: functional, Segatella buccae
Prevotella bivia [34] = test: Antibacterial activity against Prevotella bivia assessed as resistant isolates by CLSI agar dilution method; type: functional
Prevotella intermedia [35] = test: Antibacterial activity against Prevotella intermedia assessed as resistant isolates by CLSI agar dilution method; type: functional
[36] = tested on: Prevotella melaninogenica; test: Antibacterial activity against Prevotella melaninogenica assessed as resistant isolates by CLSI agar dilution method; type: functional
Veillonella parvula = test: Antibacterial activity against Veillonella parvula by CLSI agar dilution method; type: functional
Clostridium perfringens = test: microbe, parasite or virus in culture; type: functional
[37] = tested on: Clostridium paraputrificum; test: Antibacterial activity against beta-lactamase producing Clostridium paraputrificum by CLSI agar dilution method; type: functional
Clostridium septicum [38] = test: Antibacterial activity against beta-lactamase producing Clostridium septicum by CLSI agar dilution method; type: functional
Clostridium tertium [39] = test: Antibacterial activity against beta-lactamase producing Clostridium tertium by CLSI agar dilution method; type: functional
[40] = tested on: Clostridium paraputrificum; test: Antibacterial activity against beta-lactamase producing Clostridium paraputrificum assessed as susceptible isolates by CLSI agar dilution method; type: functional
Clostridium septicum [41] = test: Antibacterial activity against beta-lactamase producing Clostridium septicum assessed as susceptible isolates by CLSI agar dilution method; type: functional
Clostridium tertium [42] = test: Antibacterial activity against beta-lactamase producing Clostridium tertium assessed as susceptible isolates by CLSI agar dilution method; type: functional
Bacteroides fragilis [43] = test: Antibacterial activity against Bacteroides fragilis by CLSI agar dilution method; type: functional
[44] = tested on: Bacteroides thetaiotaomicron; test: Antibacterial activity against beta-lactamase producing Bacteroides thetaiotaomicron by CLSI agar dilution method; type: functional
[45] = tested on: Clostridium paraputrificum; test: Antibacterial activity against beta-lactamase producing Clostridium paraputrificum assessed as resistant isolates by CLSI agar dilution method; type: functional
Clostridium septicum [46] = test: Antibacterial activity against beta-lactamase producing Clostridium septicum assessed as resistant isolates by CLSI agar dilution method; type: functional
Clostridium tertium [47] = test: Antibacterial activity against beta-lactamase producing Clostridium tertium assessed as resistant isolates by CLSI agar dilution method; type: functional
[48] = tested on: Peptostreptococcus anaerobius; test: Antibacterial activity against beta-lactamase producing Peptostreptococcus anaerobius by CLSI agar dilution method; type: functional
[49] = tested on: Peptostreptococcus anaerobius; test: Antibacterial activity against beta-lactamase producing Peptostreptococcus anaerobius assessed as susceptible isolates by CLSI agar dilution method; type: functional
[50] = tested on: Peptostreptococcus anaerobius; test: Antibacterial activity against beta-lactamase producing Peptostreptococcus anaerobius assessed as resistant isolates by CLSI agar dilution method; type: functional
Parvimonas micra [51] = test: Antibacterial activity against beta-lactamase producing Micromonas micros by CLSI agar dilution method; type: functional
Parvimonas micra [52] = test: Antibacterial activity against beta-lactamase producing Micromonas micros assessed as susceptible isolates by CLSI agar dilution method; type: functional
Parvimonas micra [53] = test: Antibacterial activity against beta-lactamase producing Micromonas micros assessed as resistant isolates by CLSI agar dilution method; type: functional
[54] = tested on: Peptoniphilus asaccharolyticus; test: Antibacterial activity against beta-lactamase producing Peptoniphilus asaccharolyticus by CLSI agar dilution method; type: functional
[55] = tested on: Peptoniphilus asaccharolyticus; test: Antibacterial activity against beta-lactamase producing Peptoniphilus asaccharolyticus assessed as susceptible isolates by CLSI agar dilution method; type: functional
[56] = tested on: Peptoniphilus asaccharolyticus; test: Antibacterial activity against beta-lactamase producing Peptoniphilus asaccharolyticus assessed as resistant isolates by CLSI agar dilution method; type: functional
Finegoldia magna [57] = test: Antibacterial activity against beta-lactamase producing Finegoldia magna by CLSI agar dilution method; type: functional
Finegoldia magna [58] = test: Antibacterial activity against beta-lactamase producing Finegoldia magna assessed as susceptible isolates by CLSI agar dilution method; type: functional
Finegoldia magna [59] = test: Antibacterial activity against beta-lactamase producing Finegoldia magna assessed as resistant isolates by CLSI agar dilution method; type: functional

CCC[C@@H]1C[C@@H](C(=O)N[C@@H]([C@H]2O[C@H](SC)[C@H](O)[C@@H](O)[C@H]2O)[C@H](C)Cl)N(C)C1 [CLINDAMYCIN]
Activity (Bacteroides fragilis [1]): 63% | Activity (Bacteroides fragilis [2]): 37% | Activity [3]: 43% | MIC50 (Phocaeicola vulgatus [4]): 2 µg/mL (≈ 4.71 µM) | MIC90 (Phocaeicola vulgatus [4]): > 128 µg/mL | Activity (Phocaeicola vulgatus [5]): 57% | Activity (Phocaeicola vulgatus [6]): 39% | MIC50 (Bacteroides uniformis [7]): 2 µg/mL (≈ 4.71 µM) | MIC90 (Bacteroides uniformis [7]): > 128 µg/mL | Activity (Bacteroides uniformis [8]): 57% | Activity (Bacteroides uniformis [9]): 39% | MIC50 (Bacteroides caccae [10]): 2 µg/mL (≈ 4.71 µM) | MIC90 (Bacteroides caccae [10]): > 128 µg/mL | Activity (Bacteroides caccae [11]): 57% | Activity (Bacteroides caccae [12]): 39% | MIC50 (Fusobacterium varium [13]): 0.25 µg/mL (≈ 0.588 µM) | MIC90 (Fusobacterium varium [13]): 4 µg/mL (≈ 9.41 µM) | MIC50 (Fusobacterium nucleatum [14]): 0.25 µg/mL (≈ 0.588 µM) | MIC90 (Fusobacterium nucleatum [14]): 4 µg/mL (≈ 9.41 µM) | MIC50 (Fusobacterium mortiferum [15]): 0.25 µg/mL (≈ 0.588 µM) | MIC90 (Fusobacterium mortiferum [15]): 4 µg/mL (≈ 9.41 µM) | MIC50 [16]: 0.25 µg/mL (≈ 0.588 µM) | MIC90 [16]: 4 µg/mL (≈ 9.41 µM) | Activity (Fusobacterium varium [17]): 85% | Activity (Fusobacterium nucleatum [18]): 85% | Activity (Fusobacterium mortiferum [19]): 85% | Activity [20]: 85% | Activity (Fusobacterium varium [21]): 7% | Activity (Fusobacterium nucleatum [22]): 7% | Activity (Fusobacterium mortiferum [23]): 7% | Activity [24]: 7% | MIC50 (Prevotella buccae [25]): 0.12 µg/mL (≈ 0.282 µM) | MIC90 (Prevotella buccae [25]): > 128 µg/mL | MIC50 (Prevotella bivia [26]): 0.12 µg/mL (≈ 0.282 µM) | MIC90 (Prevotella bivia [26]): > 128 µg/mL | MIC50 (Prevotella intermedia [27]): 0.12 µg/mL (≈ 0.282 µM) | MIC90 (Prevotella intermedia [27]): > 128 µg/mL | MIC50 [28]: 0.12 µg/mL (≈ 0.282 µM) | MIC90 [28]: > 128 µg/mL | Activity (Prevotella buccae [29]): 69% | Activity (Prevotella bivia [30]): 69% | Activity (Prevotella intermedia [31]): 69% | Activity [32]: 69% | Activity (Prevotella buccae [33]): 31% | Activity (Prevotella bivia [34]): 31% | Activity (Prevotella intermedia [35]): 31% | Activity [36]: 31% | MIC (Veillonella parvula): 0.06 µg/mL (≈ 0.141 µM) | MIC50 (Clostridium perfringens): 1 µg/mL (≈ 2.35 µM) | MIC90 (Clostridium perfringens): 8 µg/mL (≈ 18.8 µM) | MIC50 [37]: 1 µg/mL (≈ 2.35 µM) | MIC90 [37]: 8 µg/mL (≈ 18.8 µM) | MIC50 (Clostridium septicum [38]): 1 µg/mL (≈ 2.35 µM) | MIC90 (Clostridium septicum [38]): 8 µg/mL (≈ 18.8 µM) | MIC50 (Clostridium tertium [39]): 1 µg/mL (≈ 2.35 µM) | MIC90 (Clostridium tertium [39]): 8 µg/mL (≈ 18.8 µM) | Activity [40]: 75% | Activity (Clostridium septicum [41]): 75% | Activity (Clostridium tertium [42]): 75% | MIC50 (Bacteroides fragilis [43]): 1 µg/mL (≈ 2.35 µM) | MIC90 (Bacteroides fragilis [43]): > 128 µg/mL | MIC50 [44]: 4 µg/mL (≈ 9.41 µM) | MIC90 [44]: > 128 µg/mL | Activity [45]: 14% | Activity (Clostridium septicum [46]): 14% | Activity (Clostridium tertium [47]): 14% | MIC50 [48]: 0.12 µg/mL (≈ 0.282 µM) | MIC90 [48]: 4 µg/mL (≈ 9.41 µM) | Activity [49]: 88% | Activity [50]: 9% | MIC50 (Parvimonas micra [51]): 0.12 µg/mL (≈ 0.282 µM) | MIC90 (Parvimonas micra [51]): 4 µg/mL (≈ 9.41 µM) | Activity (Parvimonas micra [52]): 88% | Activity (Parvimonas micra [53]): 9% | MIC50 [54]: 0.12 µg/mL (≈ 0.282 µM) | MIC90 [54]: 4 µg/mL (≈ 9.41 µM) | Activity [55]: 88% | Activity [56]: 9% | MIC50 (Finegoldia magna [57]): 0.12 µg/mL (≈ 0.282 µM) | MIC90 (Finegoldia magna [57]): 4 µg/mL (≈ 9.41 µM) | Activity (Finegoldia magna [58]): 88% | Activity (Finegoldia magna [59]): 9%
